Source: PMC7391726, “Fatty acid mimetic PBI-4547 restores metabolic homeostasis via GPR84 in mice with non-alcoholic fatty liver disease” (Scientific Reports, 2020)

Tests used:
[1] = tested on: CCl4 mouse; experiment: Carbon tetrachloride (CCl4)-induced liver fibrosis; type: in vivo
Text: (§1) Since fibrosis contributes directly to the progression from NAFLD to NASH, we next evaluated the effect of PBI-4547 pro-fibrotic gene expression. […] Pro-inflammatory genes were not modulated by treatment with PBI-4547. […] As liver fibrosis was relatively mild in HFD-fed mice, we performed separate studies to evaluate the antifibrotic effect of PBI-4547, in rodent models of carbon tetrachloride (CCl4)- and bile duct ligation (BDL)-induced liver fibrosis.

[2] = tested on: BDL rat; experiment: Bile duct ligation (BDL)-induced liver fibrosis; type: in vivo
Text: as §1

[3] = biological target: T1, PPARα (Homo sapiens, UniProt Q07869); experiment: Cell-based GAL4 transactivation assay in HEK293 cells, PPARα LBD; settings: HEK293, 24 h; read-out: EC50, PPARα transcriptional activity
T1 construct: human PPARα (S167–Y468); expressed in transfected cells; host or cells: HEK293
T1 sequence (Q07869 167-468): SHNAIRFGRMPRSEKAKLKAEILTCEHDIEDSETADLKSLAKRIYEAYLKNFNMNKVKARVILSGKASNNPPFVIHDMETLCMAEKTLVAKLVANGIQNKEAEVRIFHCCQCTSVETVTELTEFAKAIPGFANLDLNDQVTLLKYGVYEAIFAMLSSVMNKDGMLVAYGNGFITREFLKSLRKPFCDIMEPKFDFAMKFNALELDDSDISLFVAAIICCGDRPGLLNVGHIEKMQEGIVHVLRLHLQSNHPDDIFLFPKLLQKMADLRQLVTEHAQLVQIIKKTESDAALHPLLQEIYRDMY
Text: To determine the transcriptional activity of PBI-4547, a cell-based GAL4 transactivation assay in HEK293 cells transfected with either PPARα, PPARδ, or PPARγ LBD was used. […] However, PBI-4547 only partially activated PPARγ transcriptional activity, with a relative maximal efficacy of 38% of the control agonist rosiglitazone.
Generation of the Gαi2, Gαq, and GPR40/β-arrestin-2 BRET biosensors have been described previously. A plasmid encoding the human GPR120-L (long isoform) cDNA was obtained from R&D Systems. GPR120-S (short isoform) was generated by replacing the BglII-BsgI fragment from GPR120-L by a gBlock gene fragment (Integrated DNA Technologies, Coralville, IA) lacking the DNA sequence corresponding to the extra 16 amino acids found in the third intracellular loop of the long form. The GPR120-GFP10 construct was generated by inserting PCR-amplified GPR120-S (without its stop codon) in place of GPR40 in the GPR40-GFP10 plasmid. […]
HEK293 cells were co-transfected with pGL4.35[luc2P/9XGAL4UAS/Hygro] and GAL4-PPAR-Rluc plasmids, and after 24 h of incubation were treated with compounds for 24 h. Luciferase activity was determined with the Dual Glo luciferase assay (Promega). Firefly luminescence was normalized to the constitutively expressed Renilla luminescence, and results expressed as fold induction of vehicle control.

[4] = biological target: T2, PPARγ (Homo sapiens, UniProt P37231); experiment: LanthaScreen TR-FRET competitive binding assay, PPARγ LBD; settings: Cheng-Prusoff; read-out: Ki inhibition constant, PPARγ LBD
T2 construct: glutathione S-transferase (GST)-tagged human PPAR-LBD; purchased Fisher Scientific
T2 sequence (P37231 238-503 limits assumed): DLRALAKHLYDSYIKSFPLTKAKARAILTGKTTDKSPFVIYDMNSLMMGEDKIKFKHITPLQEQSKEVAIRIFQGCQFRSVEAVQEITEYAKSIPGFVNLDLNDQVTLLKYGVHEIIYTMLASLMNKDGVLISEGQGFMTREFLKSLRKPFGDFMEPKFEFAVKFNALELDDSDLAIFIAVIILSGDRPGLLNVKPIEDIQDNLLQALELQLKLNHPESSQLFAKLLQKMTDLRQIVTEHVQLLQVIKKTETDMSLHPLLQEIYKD
Text: The peroxisome proliferator-activated receptors (PPARs), PPARα, PPARδ, and PPARγ are ligand-dependent transcription factors regulated by FAs, including MCFAs, which control expression of several key metabolism-associated genes. We thus characterized the binding and transcriptional activity of PBI-4547 to these receptors. A LanthaScreen TR-FRET competitive binding assay was used to determine the binding affinity of PBI-4547 in comparison to the full control agonists GW7647 (PPARα), GW0742 (PPARδ), and rosiglitazone (PPARγ).
The LanthaScreen time-resolved fluorescence resonance energy transfer (TR-FRET) PPARα, PPARδ and PPARγ competitive binding assay (Fisher Scientific) was performed according to the manufacturer’s protocol. […] The FRET signal was measured using an Infinite M1000 microplate reader by excitation at 332 nm and emission at 520 nm for fluorescein and 490 nm for terbium. Competitive ligand binding to PPAR is detected by a test compound’s ability to displace the Fluormone pan-PPAR Green from the LBD, which results in a decrease of the 520 nm/490 nm TR-FRET ratio. The inhibition constant (Ki) of the competitor ligand was calculated by applying the Cheng-Prusoff equation.

CCCCCc1cc(CCCCC)cc(CC(=O)[O-])c1.[Na+] [PBI-4547, 2-[3,5-dipentylphenyl]acetate sodium salt]
liver collagen deposition [1]: significantly decreased | liver collagen deposition [2]: significantly decreased | EC50 [3]: 42 µM | Ki [4]: 0.088 µM
